The values that follow come from EP1382597A2, “Steroid receptor modulator compounds and methods” (LIGAND PHARMACEUTICALS, INC., priority 1994, dated 1996).

Assay type in all cases: cell-based
In test [1] the target is T1, human PR-B (Homo sapiens, UniProt P06401).
T1 construct: expressed in transfected cells; host or cells: CV-1 cells (African green monkey kidney fibroblasts), transient transfection
T1 sequence (P06401 1-933): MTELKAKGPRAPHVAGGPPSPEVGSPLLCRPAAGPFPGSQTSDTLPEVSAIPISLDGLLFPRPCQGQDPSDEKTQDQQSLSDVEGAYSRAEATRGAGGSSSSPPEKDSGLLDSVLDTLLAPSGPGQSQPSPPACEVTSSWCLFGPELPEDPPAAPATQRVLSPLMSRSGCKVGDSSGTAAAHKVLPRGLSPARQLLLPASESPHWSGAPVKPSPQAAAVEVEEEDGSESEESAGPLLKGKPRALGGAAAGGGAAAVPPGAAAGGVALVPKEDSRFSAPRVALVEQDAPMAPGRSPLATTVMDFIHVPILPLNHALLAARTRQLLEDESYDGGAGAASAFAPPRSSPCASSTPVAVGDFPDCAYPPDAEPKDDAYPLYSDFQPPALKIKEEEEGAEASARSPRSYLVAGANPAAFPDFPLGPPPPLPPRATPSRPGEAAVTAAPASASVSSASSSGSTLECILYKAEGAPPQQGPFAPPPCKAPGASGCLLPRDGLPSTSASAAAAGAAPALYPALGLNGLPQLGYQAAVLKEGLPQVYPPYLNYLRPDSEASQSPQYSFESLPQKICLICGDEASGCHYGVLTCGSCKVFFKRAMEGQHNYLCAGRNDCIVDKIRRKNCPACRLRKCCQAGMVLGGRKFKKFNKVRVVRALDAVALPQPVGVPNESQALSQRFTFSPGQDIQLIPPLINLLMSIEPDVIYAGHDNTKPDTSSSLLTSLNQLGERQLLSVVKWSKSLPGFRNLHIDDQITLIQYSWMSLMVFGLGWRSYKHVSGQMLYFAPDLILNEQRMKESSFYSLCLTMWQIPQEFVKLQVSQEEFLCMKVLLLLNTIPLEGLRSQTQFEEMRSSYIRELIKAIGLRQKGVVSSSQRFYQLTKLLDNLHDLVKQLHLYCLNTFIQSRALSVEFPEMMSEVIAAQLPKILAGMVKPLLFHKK
The test can be described thus: Co-transfection assay, PR agonist activity.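 On all read-outs here: CV-1 cells (African green monkey kidney) co-transfected with receptor plasmid and hormone-responsive firefly luciferase reporter, agonism read as compound-dependent rise in luciferase signal.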 Particulars: for Emax: CV-1, read-out: PR Agonist CV-1 Cells Efficacy (%).

Test [2] has as its target T1, human PR-B. The test can be described thus: Co-transfection assay, PR antagonist activity.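 Further: monkey kidney fibroblasts co-transfected with receptor expression plasmid and hormone-responsive luciferase reporter, antagonism read as reduced luciferase signal.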
A further test has as its target T2, GR (Homo sapiens, UniProt P04150).
T2 construct: expressed in transfected cells; host or cells: CV-1 cells, transient transfection
T2 sequence (P04150 1-777): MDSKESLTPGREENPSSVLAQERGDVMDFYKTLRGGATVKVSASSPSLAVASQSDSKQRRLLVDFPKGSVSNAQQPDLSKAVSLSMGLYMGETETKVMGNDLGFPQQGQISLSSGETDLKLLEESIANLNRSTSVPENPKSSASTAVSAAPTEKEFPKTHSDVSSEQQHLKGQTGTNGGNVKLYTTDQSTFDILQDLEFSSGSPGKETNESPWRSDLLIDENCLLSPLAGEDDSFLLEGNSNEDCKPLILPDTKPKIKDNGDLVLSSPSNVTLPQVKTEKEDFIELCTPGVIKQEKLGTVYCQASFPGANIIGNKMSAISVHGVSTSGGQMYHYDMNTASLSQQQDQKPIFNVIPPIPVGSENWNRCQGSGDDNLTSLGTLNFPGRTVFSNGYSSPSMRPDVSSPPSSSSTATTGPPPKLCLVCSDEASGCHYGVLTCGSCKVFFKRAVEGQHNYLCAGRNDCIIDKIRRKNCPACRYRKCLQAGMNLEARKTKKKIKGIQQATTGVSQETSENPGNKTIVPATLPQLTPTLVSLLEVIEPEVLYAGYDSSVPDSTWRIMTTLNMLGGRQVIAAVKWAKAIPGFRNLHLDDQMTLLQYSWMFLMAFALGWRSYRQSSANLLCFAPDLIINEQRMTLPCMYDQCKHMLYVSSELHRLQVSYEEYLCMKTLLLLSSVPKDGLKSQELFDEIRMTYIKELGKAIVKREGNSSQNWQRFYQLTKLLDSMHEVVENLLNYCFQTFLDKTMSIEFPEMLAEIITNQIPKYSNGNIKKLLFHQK
The test can be described thus: Co-transfection assay, GR antagonist activity. The conditions noted are these: CV-1, read-out: GR Antagonist CV-1 Cells Efficacy (%).

A further test concerns the target T3, MR (Homo sapiens, UniProt P08235).
T3 construct: expressed in transfected cells; host or cells: CV-1 cells, transient transfection
T3 sequence (P08235 1-984): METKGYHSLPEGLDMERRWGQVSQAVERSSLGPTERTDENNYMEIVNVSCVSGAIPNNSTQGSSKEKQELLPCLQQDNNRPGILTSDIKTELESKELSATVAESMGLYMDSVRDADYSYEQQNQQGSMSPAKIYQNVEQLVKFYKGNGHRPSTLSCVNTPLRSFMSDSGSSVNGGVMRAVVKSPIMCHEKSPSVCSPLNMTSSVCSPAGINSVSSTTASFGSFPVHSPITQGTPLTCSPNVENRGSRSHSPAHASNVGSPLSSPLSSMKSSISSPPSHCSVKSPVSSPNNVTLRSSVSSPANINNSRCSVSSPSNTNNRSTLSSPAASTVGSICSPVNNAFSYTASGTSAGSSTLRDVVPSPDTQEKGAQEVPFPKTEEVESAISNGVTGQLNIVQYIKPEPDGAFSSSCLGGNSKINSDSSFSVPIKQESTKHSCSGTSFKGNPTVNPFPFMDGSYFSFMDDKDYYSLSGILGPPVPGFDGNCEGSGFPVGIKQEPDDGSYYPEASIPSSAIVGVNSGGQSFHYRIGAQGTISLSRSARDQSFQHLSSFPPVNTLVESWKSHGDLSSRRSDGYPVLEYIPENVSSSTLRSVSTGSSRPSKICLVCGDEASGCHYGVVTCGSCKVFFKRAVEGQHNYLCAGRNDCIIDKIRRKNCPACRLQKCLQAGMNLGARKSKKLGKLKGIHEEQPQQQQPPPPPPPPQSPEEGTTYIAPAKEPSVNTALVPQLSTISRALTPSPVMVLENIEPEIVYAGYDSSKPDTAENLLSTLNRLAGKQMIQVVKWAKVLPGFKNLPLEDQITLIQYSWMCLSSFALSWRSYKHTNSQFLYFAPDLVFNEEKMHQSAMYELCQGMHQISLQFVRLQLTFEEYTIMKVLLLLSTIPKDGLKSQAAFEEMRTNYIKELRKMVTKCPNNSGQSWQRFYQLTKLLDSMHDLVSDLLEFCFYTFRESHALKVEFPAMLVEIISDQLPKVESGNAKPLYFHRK
Description: Co-transfection assay, MR antagonist activity. The conditions noted are these: CV-1, read-out: MR Antagonist CV-1 Cells Efficacy (%).

The target of test [3] is T4, AR (Homo sapiens, UniProt P10275).
T4 construct: expressed in transfected cells; host or cells: CV-1 cells, transient transfection
T4 sequence (P10275 whole entry): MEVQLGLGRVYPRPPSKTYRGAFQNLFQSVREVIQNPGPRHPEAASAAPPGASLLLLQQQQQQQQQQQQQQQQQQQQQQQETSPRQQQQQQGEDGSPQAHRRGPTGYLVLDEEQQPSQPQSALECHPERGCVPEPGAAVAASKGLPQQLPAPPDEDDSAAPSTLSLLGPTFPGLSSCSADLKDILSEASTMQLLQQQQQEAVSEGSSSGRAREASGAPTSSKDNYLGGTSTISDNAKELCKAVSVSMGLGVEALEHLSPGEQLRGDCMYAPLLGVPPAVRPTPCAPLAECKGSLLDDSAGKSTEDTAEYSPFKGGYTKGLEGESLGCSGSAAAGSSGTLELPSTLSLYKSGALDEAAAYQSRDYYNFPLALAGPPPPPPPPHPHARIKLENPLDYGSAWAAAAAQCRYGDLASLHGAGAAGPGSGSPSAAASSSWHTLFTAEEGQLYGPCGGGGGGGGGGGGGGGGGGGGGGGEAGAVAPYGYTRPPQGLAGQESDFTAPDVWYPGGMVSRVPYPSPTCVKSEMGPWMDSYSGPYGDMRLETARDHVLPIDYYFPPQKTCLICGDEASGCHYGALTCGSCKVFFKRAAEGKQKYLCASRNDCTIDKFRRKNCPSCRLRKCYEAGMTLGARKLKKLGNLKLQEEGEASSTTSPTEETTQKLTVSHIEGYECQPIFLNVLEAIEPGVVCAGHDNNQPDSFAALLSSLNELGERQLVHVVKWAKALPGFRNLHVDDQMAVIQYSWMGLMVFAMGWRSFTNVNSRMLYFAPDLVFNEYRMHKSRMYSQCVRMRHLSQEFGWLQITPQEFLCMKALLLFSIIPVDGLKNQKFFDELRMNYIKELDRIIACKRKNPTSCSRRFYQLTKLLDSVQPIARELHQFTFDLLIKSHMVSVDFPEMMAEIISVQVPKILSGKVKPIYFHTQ
Description: Co-transfection assay, AR antagonist activity.

Test [4] deals with T5, ER (Homo sapiens, UniProt P03372).
T5 construct: expressed in transfected cells; host or cells: CV-1 cells, transient transfection, with MTV-ERE5-LUC reporter
T5 sequence (P03372 whole entry): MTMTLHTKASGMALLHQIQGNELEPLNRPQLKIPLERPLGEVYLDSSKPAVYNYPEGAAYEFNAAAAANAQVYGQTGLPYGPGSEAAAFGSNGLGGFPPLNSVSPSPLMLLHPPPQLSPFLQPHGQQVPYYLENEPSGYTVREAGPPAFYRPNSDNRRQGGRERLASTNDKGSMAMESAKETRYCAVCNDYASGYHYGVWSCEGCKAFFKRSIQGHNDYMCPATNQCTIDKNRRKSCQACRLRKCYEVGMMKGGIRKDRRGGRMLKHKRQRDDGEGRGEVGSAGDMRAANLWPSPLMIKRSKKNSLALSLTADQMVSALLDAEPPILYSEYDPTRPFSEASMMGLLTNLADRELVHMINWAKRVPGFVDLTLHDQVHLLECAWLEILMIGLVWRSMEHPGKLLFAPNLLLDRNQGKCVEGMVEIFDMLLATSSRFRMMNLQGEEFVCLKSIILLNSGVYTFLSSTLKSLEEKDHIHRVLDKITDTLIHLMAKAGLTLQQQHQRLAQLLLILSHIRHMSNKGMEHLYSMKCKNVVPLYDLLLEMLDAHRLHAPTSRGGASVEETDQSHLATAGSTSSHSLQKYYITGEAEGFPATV
Description: Co-transfection assay, ER antagonist activity.

For test [5], the target named is T4, AR. Description: Co-transfection assay, AR agonist activity.
The target in test [6] is T5, ER. Description: Co-transfection assay, ER agonist activity.
Setting [7] is: CV-1, read-out: AR Agonist CV-1 Cells Efficacy (%).
Setting [8] is: CV-1, read-out: AR Antagonist CV-1 Cells Efficacy (%).
The mark [9] stands for this setting: CV-1 cells; relative to reference agonist DHT.
Setting [10] is: CV-1 cells; percent maximal inhibition, DHT at its EC50.

Take `CC1=CC(C)(C)Nc2ccc3c(c21)C(c1ccccc1)Oc1ccccc1-3` (racemic) [Compound 161, (R/S)-1,2-Dihydro-2,2,4-trimethyl-5-phenyl-5H-chromeno[3,4-f]quinoline]: the Emax on human PR-B [1] worked out at 47%; at human PR-B [2] (CV-1, read-out: PR Antagonist CV-1 Cells Efficacy (%)), 75%; at GR it was 97%; on MR it was 58%.
With `CC1=CC(C)(C)Nc2ccc3c(c21)C(c1ccc(C)cc1)Oc1ccccc1-3` (racemic) [Compound 167, (R/S)-1,2-Dihydro-2,2,4-trimethyl-5-(4-methylphenyl)-5H-chromeno[3,4-f]quinoline], the Emax was found to be 96% at GR and 61% at MR.
The EC50 is the concentration that produces a half-maximal response. A low value points to an effect from little substance. As a reminder, the IC50 is the point on the concentration scale where inhibition reaches its midpoint. A low value points to greater potency. `CC1=CC(C)(C)Nc2ccc3c(c21)C(c1ccsc1)Oc1ccccc1-3` (racemic) [Compound 170, (R/S)-1,2-Dihydro-2,2,4-trimethyl-5-(thiophen-3-yl)-5H-chromeno[3,4-f]quinoline] registered an EC50 at human PR-B [1] of 73 nM. For the same compound, the half-inhibitory concentration (IC50) against AR [3] is 290 nM; against human PR-B [2], 145 nM; against ER [4], 580 nM. In addition, the Emax on GR was determined as 94%; on MR it was 84%. The “ER Antagonist CV-1 Cells Efficacy (%)” value at ER [4] (CV-1 cells, percent maximal inhibition, estradiol at its EC50) was determined as 78%.
Regarding `CC1CC(C)(C)Nc2cc3oc(=O)cc(-c4ccoc4)c3cc21` (racemic) [Compound 405, (R/S)-5-(3-Furyl)-1,2,3,4-tetrahydro-2,2,4-trimethyl-8-pyranono[5,6-g]quinoline], the Emax at AR [5] (setting [7]) is less than 20%; on AR [3] (setting [8]), 89%.
`CCC1CCNc2cc3oc(=O)cc(C(F)(F)F)c3cc21` (racemic) [Compound 414, (R/S)-4-Ethyl-1,2,3,4-tetrahydro-6-trifluoromethyl-8-pyranono[5,6-g]quinoline]: the Emax at AR [5] (setting [7]) was 118%; at AR [3] (setting [8]), less than 20%.
On to `CC1C(=O)C(C)(C)Nc2cc3[nH]c(=O)cc(C(F)(F)F)c3cc21` (racemic) [Compound 418, (R/S)-1,2,3,4-tetrahydro-6-trifluoromethyl-2,2,4-trimethyl-8-pyridono[5,6-f]-3-quinolinone], for which the figures for the Emax on AR [5] (setting [7]) and on AR [3] (setting [8]) were less than 20% and 63%, respectively.
For `CC1=CC(C)(C)Nc2cc3oc(=O)cc(C(F)(F)F)c3cc21` [Compound 238, 1,2-Dihydro-2,2,4-trimethyl-6-trifluoromethyl-8-pyranono[5,6-g]quinoline], the results for the Emax at AR [5] (setting [7]) and on AR [3] (setting [8]) were 96% and less than 20%, respectively.
Turning to `CC1=CC(C)(C)Nc2cc3[nH]c(=O)cc(C(F)(F)F)c3cc21` [Compound 247, 1,2-Dihydro-2,2,4-trimethyl-6-trifluoromethyl-8-pyridono[5,6-g]quinoline], at AR [5] (setting [9]), the “AR Agonist CV-1 Cells Efficacy (%)” value worked out at 23%. On AR [3] (setting [10]), the “AR Antagonist CV-1 Cells Efficacy (%)” value was determined as 69%.
Turning to `CC1=CC(C)(C)Nc2cc3oc(=O)cc(C(F)(F)C(F)(F)F)c3cc21` [Compound 256, 1,2-Dihydro-2,2,4-trimethyl-6-(1,1,2,2,2-pentafluoroethyl)-8-pyranono[5,6-g]quinoline], the results for the Emax on AR [5] (setting [7]) and on AR [3] (setting [8]) were less than 20% and 91%, respectively.
Consider `CC1=CC(C)(C)N(C)c2cc3oc(=O)cc(C(F)(F)F)c3cc21` [Compound 265, 1,2-Dihydro-1,2,2,4-tetramethyl-6-trifluoromethyl-8-pyranono[5,6-g]quinoline], for which the Emax at AR [5] (setting [7]) is less than 20%; on AR [3] (setting [8]) it was 78%.
Take `O=c1cc(C(F)(F)F)c2cc3c(cc2[nH]1)NCC3` [Compound 419, 5-Trifluoromethyl-7-pyridono[5,6-e]indoline]: at AR [5] (setting [9]), the “AR Agonist CV-1 Cells Efficacy (%)” value is listed as 29%. In addition, the “AR Antagonist CV-1 Cells Efficacy (%)” value at AR [3] (setting [10]) is listed as 74%.
Turning to `CC1(C)CNc2cc3[nH]c(=O)cc(C(F)(F)F)c3cc2C1` [Compound 437, 1,2,3,4-Tetrahydro-3,3-dimethyl-6-trifluoromethyl-8-pyridono[5,6-g]quinoline], the values for the Emax on AR [5] (CV-1; read-out: AR Agonist CV-1 Cells Efficacy (%)) and at AR [3] (CV-1; read-out: AR Antagonist CV-1 Cells Efficacy (%)) were less than 20% and 72%, respectively.
Take `CC(C)(O)C(=O)Nc1ccc([N+](=O)[O-])c(C(F)(F)F)c1` [Flut]: the concentration giving a half-maximal response (EC50) on ER [6] was more than 10000 nM. The same compound yielded a half-maximal inhibitory concentration (IC50) on ER [4] of more than 10000 nM.
Turning to `CC#C[C@]1(O)CC[C@H]2[C@@H]3CCC4=CC(=O)CCC4=C3[C@@H](c3ccc(N(C)C)cc3)C[C@@]21C` [RU486, (11beta, 17beta)-11-[4-(dimethylamino)phenyl]-17-hydroxy-17-(1-propynyl)estra-4,9-dien-3-one, reference compound], the Emax was less than 20% at human PR-B [1], 100% at GR and 77% on MR.
Take `CC(=O)S[C@@H]1CC2=CC(=O)CC[C@]2(C)[C@H]2CC[C@@]3(C)[C@@H](CC[C@@]34CCC(=O)O4)[C@H]12` [Spir, 7-alpha-[acetylthio]-17-alpha-hydroxy-3-oxopregn-4-ene-21-carboxylic acid gamma-lactone, reference compound]: the Emax stood at 80% on GR and 96% on MR.
